Data on eleven compounds can be found in ChEMBL document CHEMBL1141556, “Structural insights into hydroxycoumarin-induced apoptosis in U-937 cells” (Bioorg Med Chem, 2008).

The subject of assay [1] is U-937. Briefly: Induction of apoptosis in human U937 cells at 250 uM after 24 hrs. It counts as functional.
Assay [2] relates to U-937. Briefly: Cytotoxicity against human U937 cells by trypan blue assay after 48 hrs. It is filed as functional. The conditions noted are these: U-937, 48 h.
Assay [3] concerns U-937. Briefly: Growth inhibition of human U937 cells by [3H]thymidine incorporation assay. It is filed as functional, cell-based.
The test system of assay [4] is U-937. Briefly: Effect on DNA fragmentation in human U937 cells assessed as ladder-like pattern at 2 mM after 24 hrs. It counts as functional, cell-based.
In assay [5] the test system is U-937. The assay can be described thus: Reversal of proapoptotic effect in human U937 cells assessed as inhibition of ladder-like pattern at 250 uM in presence of 10 mM NAC added every 8 hrs for 24 hrs. It is filed as functional, cell-based.
Assay [6] has as its system U-937. The assay can be described thus: Reversal of induction of apoptosis in human U937 cells at 250 uM in presence of 10 mM NAC added every 8 hrs for 24 hrs. It is filed as functional, cell-based.
The test system of assay [7] is U-937. Briefly: Induction of DNA fragmentation in human U937 cells at 2 mM after 24 hrs. It is filed as functional, cell-based.

SMILES strings stand for the structures. “And” between values parts separate entries of the source, which are not always exact repeats. Equal entries are not always repeated. The source made the active and inactive calls. The rule behind the calls is not given here. Bounds are passed on as bounds.

`Cc1cc(=O)oc2ccc(O)cc12` returned an Activity in assay [1] of 3%. In addition, the half-maximal cytotoxic concentration (CC50) in assay [2] was > 2000 µM. Also, half-maximal inhibition in assay [3] (Homo sapiens, U-937) (IC50) required 628 µM. Further, the outcome in assay [4] was Active.
With `Cc1ccc2c(C)cc(=O)oc2c1`, in assay [1], the Activity was 5.3%. For the same compound, the CC50 in assay [2] was > 2000 µM. In assay [3] (Homo sapiens, U-937), the IC50 was > 2000 µM.
In assay [1], `Cc1cc(=O)oc2c(C)cccc12` gave an Activity of 4.6%. In addition, in assay [2], the CC50 is > 2000 µM. Also, the IC50 in assay [3] (Homo sapiens, U-937) is > 2000 µM.
As to `Cc1ccc2oc(=O)cc(C)c2c1`, in assay [1], the Activity was 4.3%. Also, the CC50 in assay [2] was > 2000 µM. Besides, the IC50 in assay [3] (Homo sapiens, U-937) is > 2000 µM.
In assay [1], `O=c1oc2ccccc2cc1O` [3-HYDROXYCOUMARIN] had an Activity of 5.3%. Moreover, in assay [2], the CC50 was > 2000 µM. Further, the IC50 in assay [3] (Homo sapiens, U-937) was > 2000 µM.
With `Cc1cc(=O)oc2c(O)c(O)ccc12` [4-METHYLDAPHNETIN], the outcome in assay [5] and in assay [6] was Active. The compound further displayed an Activity in assay [1] of 55%. The CC50 in assay [2] came to 165 µM. The same compound came in with an IC50 in assay [3] (Homo sapiens, U-937) of 48.6 µM.
`O=c1ccc2ccccc2o1` [COUMARIN]: the Activity in assay [1] came to 2.6%. Moreover, the cytotoxic concentration (CC50) in assay [2] was > 2000 µM. Also, the half-maximal inhibitory concentration (IC50) in assay [3] (Homo sapiens, U-937) is > 2000 µM.
In the case of `O=c1ccc2cc(O)c(O)cc2o1` [ESCULETIN], the result in assay [7] was Active. The compound also showed an Activity in assay [1] of 54.3%. In assay [2], this compound yielded a CC50 of 194 µM. The compound also gave a half-maximal inhibitory concentration (IC50) in assay [3] (Homo sapiens, U-937) of 31.3 µM.
The compound `COc1ccc2c(C)cc(=O)oc2c1` [HYMECROMONE METHYL ETHER] yielded an Activity in assay [1] of 4%. Moreover, the CC50 in assay [2] was > 2000 µM. In addition, the IC50 in assay [3] (Homo sapiens, U-937) is > 2000 µM.
Consider `Cc1cc(=O)oc2cc(O)ccc12` [HYMECROMONE], for which, in assay [1], the Activity is 5.2% and 4.7%. Also, the CC50 in assay [2] was > 2000 µM. In assay [3] (u-937), the concentration for half-maximal inhibition (IC50) was > 2000 µM. Moreover, the outcome in assay [4] was Active.
In the case of `COc1cc2ccc(=O)oc2cc1O` [SCOPOLETIN], the Activity in assay [1] is 6.3%. The compound also came in with a CC50 in assay [2] of 600 µM. Moreover, in assay [3] (Homo sapiens, U-937), inhibition was half-maximal at 152 µM (IC50). Also, the result in assay [4] was Active.

For orientation: CC50 means the concentration giving 50% cytotoxicity. Read a low CC50 as harm at low concentration. A word on the IC50: it is the concentration at which inhibition is half-maximal. A lower IC50 goes with higher potency.
